From US11219588B2, “Use of polyamines in compositions and methods for inducing or promoting skin darkening and regulating melanogenesis” (Agency for Science, Technology and Research, priority 2016, dated 2022)
Like-named read-outs stand apart in the source and are kept apart here.

Columns and labels:
Human keratinocytes = assay: MTT cell viability assay, keratinocytes; conditions: increasing concentrations (trimer44NMe up to 5 μM)
Procedure: (§1) Human keratinocytes and melanocytes were cultured in the presence of increasing concentrations of a polycationic aliphatic amine transport inhibitor, trimer44NMe, or DFMO, and the cell viability was determined by an MTT assay.

Human melanocytes [1] = assay: MTT cell viability assay, melanocytes; conditions: increasing concentrations
Procedure: as §1

[2] = test system: co-cultured human keratinocytes and melanocytes; assay: UV induced pigmentation in co-culture of melanocytes and keratinocytes; assay type: cell-based; conditions: co-culture under UV induction
Text: On UV induction, keratinocytes signal to melanocytes to increase melanogenesis. This can be modeled through co-culture of human melanocytes and keratinocytes under UV induction.

[3] = test system: reconstructed epidermis (keratinocytes, melanocytes and fibroblasts); conditions: 2 mM Putrescine for 14 days, preliminary experiment
Procedure: The reconstructed epidermis (Denova Sciences) has normal human keratinocytes three dimensionally cultured at an air-liquid interface in a chemically defined medium, in the presence of melanocytes and fibroblasts. They were treated with 2 mM Putrescine for 14 days.

[4] = test system: primary human melanocytes; conditions: long term culture with putrescine
[5] = test system: ATP13A3, SLC11A8 and Caveolin-1 in melanocytes; conditions: on addition of putrescine
[6] = test system: cultured human melanocytes; conditions: melanocytes cultured with putrescine
Procedure: To confirm that cultured human melanocytes do take up putrescine, the polycationic aliphatic amine content was measured in melanocytes cultured with and without putrescine.

NHEM-aLP cells [7] = assay: MTS proliferation and cytotoxicity colorimetric assay
NHEM-aLP cells [8] = assay: Putrescine/spermidine treatment of melanocytes and melanin quantification; assay type: cell-based, human
Procedure: 2×10^5 cells were dissolved in 1 M sodium hydroxide solution and incubated at 80° C. for 2 hours. The absorbance of the cell lysates was measured at 405 nm in a microplate well reader.
2×10^5 cells were dissolved in 1M sodium hydroxide solution and incubated at 80° C. for 2 hours. The absorbance of the cell lysates was measured at 405 nm in a microplate well reader.

[9] = test system: melanogenesis related proteins (TYR, TYRP1 and DCT) in NHEM-aLP cells; conditions: putrescine treated vs control, western blotting
Procedure: Human epidermal melanocytes from adult donor (Hema-LP) were purchased from Life Technologies. The cells were grown in 254 media with HMGS-2 and calcium chloride supplements in a humidified incubator containing 5% CO2 according to the manufacturer's instruction. For putrescine treatments, the cells were plated at an approximate density of 20,000/cm^2 the day before. Fresh media was added along with the respective drugs reconstituted in water (putrescine was purchased from Sigma Aldrich) to the cell cultures on day 0 and day 3 of experiment. The cells were lysed in RIPA buffer, and concentration of the cell lysate was determined by Pierce BCA Protein Assay Kit (Thermo Scientific). […] The membrane was blocked with 5% skim milk in TBST (0.1% Tween-20 (Sigma-Aldrich) in 1×TBS (0.1 M NaCl, 0.1 M Tris pH 7.4 in ddH2O; purchased from Biopolis Shared Facility) and incubated overnight at 4° C. with respective primary antibodies against TYR (sc-7833), TYRP1 (sc-10443), DCT (sc-10451) from Santa Cruz Biotechnology Inc and RPLP0 (AB126480) from Abcam at a dilution of 1:1000 in blocking buffer. The samples were then incubated with horseradish peroxidase-labeled anti-rabbit, or anti-goat IgG (Santa Cruz Biotechnology, Inc) at a dilution 1:5000 for 1 hour at 4° C. and immunoreactive bands were detected with enhanced chemiluminescent substrate (Thermo Fisher Scientific).

[10] = test system: human abdominal skin biopsies
Text: The skin was them imaged, followed by sectioning and staining with Fontana Mason stain which stains for melanin.

[11] = test system: primary human melanocytes; conditions: 3 and 6 days after incubation with putrescine
Text: FIG. 8 is a dot plot showing the viability of cells untreated, treated for 3 days, or treated for 6 days with putrescine.

[12] = test system: melanogenesis-related genes (TYR, TYRP1, DCT and PMEL) in NHEM-aLP cells; conditions: 2 mM putrescine for 6 days, relative to RPLP0
Procedure: Human epidermal melanocytes from adult donor (Hema-LP) were purchased from Life Technologies. The cells were grown in 254 media with HMGS-2 and calcium chloride supplements in a humidified incubator containing 5% CO2 according to the manufacturer's instruction. For putrescine treatments, the cells were plated at an approximate density of 20,000/cm^2 the day before. Fresh media was added along with the respective drugs reconstituted in water (putrescine was purchased from Sigma Aldrich) to the cell cultures on day 0 and day 3 of experiment.
Total RNA was extracted from the cells using RNAeasy (Qiagen) according to manufacturer's instructions. 500 ng of total RNA was converted to complimentary DNA using RevertAid First Strand cDNA synthesis kit (Thermo Scientifc). It was diluted 1:25, and 4 ul of the diluted mixture was used as a template with specific primers using Luminaris Colour HiGreen Hi ROX master mix (Thermo Fisher Scientific) for qRT-PCR on an ABI PRISM 7900 sequence detection system. […] Expression levels detected by qPCR were normalized with ribosomal protein LP0 or L13A.

[13] = test system: human primary melanocytes; assay: Melanin content of melanocytes, putrescine with and without transport inhibitor; assay type: cell-based; conditions: putrescine plus trimer44NMe vs putrescine alone
Procedure: To confirm that import of putrescine is required for the pigmentation phenotype observed in melanocytes, human primary melanocytes were cultured with putrescine with and without a polycationic aliphatic amine transport inhibitor (trimer44NMe).

Human melanocytes [14] = test system: Human melanocytes
Procedure: as §1

With `NCCCC(N)(C(=O)O)C(F)F` (racemic) [DFMO, (RS)-2,5-diamino-2-(difluoromethyl)pentanoic acid] the “sensitivity of keratinocyte viability” value (Human keratinocytes) was “sensitive”, the “sensitivity of melanocyte viability” value (Human melanocytes [1]) was “comparatively insensitive” and the “UV induced pigmentation (melanin-containing keratinocytes)” value [2] was “inhibits UV induced pigmentation”.

`NCCCCN` [putrescine, butane-1,4-diamine] was tested, and the “pigmentation levels compared to control” value [3] was “increase in pigmentation levels”, the “melanin content on long term culture” value [4] was “sustained increase in melanin content” and the “protein level of Caveolin-1” value [5] was “decreases”. For the same compound, the “protein levels of polyamine transporters ATP13A3 and SLC11A8” value [5] was “increase”, the “intracellular levels of putrescine vs non-treated cells” value [6] was “dramatically higher” and the “intracellular levels of spermine” value [6] was “decrease in the levels of spermine”. The “maximum dose up to which NHEM-aLP can survive” value (NHEM-aLP cells [7]; 3 days treatment, MTS) was 2 mM, the effect on proliferation (NHEM-aLP cells [7]; doses between 0.5 mM and 2 mM, 3 days) was “mild proliferative effect” and the “cell morphology / dendrites” value (NHEM-aLP cells [8]; 2 mM putrescine, day 6) was “larger and flatter and displayed an increased number of dendrites”. For the same compound, the “visual darkening of the melanocytes” value (NHEM-aLP cells [8]; 2 mM putrescine, every 3 days for 6 days) was “drastic darkening effect”, the “increase in melanin content vs control” value (NHEM-aLP cells [8]; 2 mM putrescine, every 3 days for 6 days, NHEM-aLP cells) was 1.5-2 fold and the “protein levels of TYR, TYRP1 and DCT” value [9] was “increased drastically”. For the same compound, the “darkening of the skin” value ([10]; incubated ten days) was “promoted darkening of the skin”, the “melanin stain within melanocytes and neighboring keratinocytes” value ([10]; ten days, Fontana Mason stain) was “increase in melanin stain” and the cell viability [11] was “no decrease in viability”. The “mRNA expression levels of TYR, TYRP1, DCT and PMEL” value [12] was “significant increase”.

`NCCCCNCCCN` [spermidine, N′-(3-aminopropyl)butane-1,4-diamine] was tested, and the “melanin content of the cells, dose dependence” value (NHEM-aLP cells [8]; 0.05 mM and 0.5 mM spermidine, every 3 days for 6 days) was “dose dependant increase”, the “maximum fold change in melanin content” value (NHEM-aLP cells [8]; 0.5 mM spermidine, every 3 days for 6 days, NHEM-aLP cells) was 1.5-2 fold and the “concentration for similar melanin increase relative to putrescine (2 mM)” value (NHEM-aLP cells [8]; spermidine 0.5 mM vs putrescine 2 mM) was 4 times lower.

With `CNCCCCNCCCCNCc1cc(CNCCCCNCCCCNC)cc(CNCCCCNCCCCNC)c1` [trimer44NMe] the “effect on putrescine induced pigmentation (melanin content)” value [13] was “blocked the ability of putrescine to promote pigmentation” and the “sensitivity of melanocyte viability” value (Human melanocytes [14]) was “highly sensitive”.
